Strand notation (5' to 3'): a small letter for the sugar, then the base; units joined by * are phosphorothioate-linked, units joined directly phosphodiester-linked; [ ] holds rarer units or linkages, { } end groups; capitals alone tell only the bases. k = constrained ethyl (cEt); [5mC] = 5-methylcytosine; d = 2'-deoxy (DNA)
Test system: Yap1 mRNA
Assay: Dose-dependent inhibition of human Yap1 in A-431 cells (Example 8, 10,000 cells per well, RTS4814)
Assay type: cell-based
Conditions: free uptake, approximately 48 hours, RTS4814; for Yap1 mRNA, % UTC: A-431 cells, 10,000 cells per well; for IC50: A-431 cells, linear regression on log/linear plot
Experimental: Modified oligonucleotides described in the studies above were tested at various doses in A-431 cells. Cultured A-431 cells at a density of 10,000 cells per well were treated using free uptake with modified oligonucleotides diluted to concentrations described in the tables below. After approximately 48 hours, Yap1 mRNA levels were measured as previously described using the Human Yap1 primer-probe set RTS4814. Yap1 mRNA levels were normalized to total RNA content, as measured by RIBOGREEN®. Results are presented in the tables below as percent control of the amount of Yap1 mRNA relative to untreated control cells (% UTC). IC50s were calculated using a linear regression on a log/linear plot of the data in excel.

Substance	Yap1 mRNA, % UTC (31.3 nM)	Yap1 mRNA, % UTC (125.0 nM)	Yap1 mRNA, % UTC (500.0 nM)	Yap1 mRNA, % UTC (2000.00 nM)	IC50
1075808 (kG*k[5mC]*kA*dA*dT*dA*dG*dA*dG*dT*dA*dA*d[5mC]*k[5mC]*kA*kG; antisense) [compound 1075808]	38 % UTC	9 % UTC	4 % UTC	4 % UTC	< 20 nM
1075816 (kT*kA*kG*dT*dA*dT*dA*dA*dA*dG*d[5mC]*dA*dG*kG*kG*k[5mC]; antisense) [compound 1075816]	66 % UTC	29 % UTC	12 % UTC	8 % UTC	100 nM
1076426 (kA*k[5mC]*kG*dG*dG*dA*dA*dA*dA*dT*dT*d[5mC]*dT*kG*kG*kA; antisense) [compound 1076426]	68 % UTC	46 % UTC	24 % UTC	18 % UTC	100 nM
1075819 (kG*kT*kA*dT*dA*dT*d[5mC]*d[5mC]*dG*dT*dT*d[5mC]*dT*k[5mC]*kA*kT; antisense) [compound 1075819]	48 % UTC	18 % UTC	7 % UTC	5 % UTC	< 20 nM
1076489 (k[5mC]*kA*kA*dA*dA*dT*dA*dG*dG*dT*dG*dA*dG*kT*k[5mC]*kA; antisense) [compound 1076489]	43 % UTC	13 % UTC	4 % UTC	3 % UTC	< 20 nM
1074817 (k[5mC]*kT*kG*dA*dA*dT*dA*dT*dT*dG*d[5mC]*d[5mC]*dA*k[5mC]*k[5mC]*k[5mC]; antisense) [compound 1074817]	50 % UTC	22 % UTC	13 % UTC	11 % UTC	< 20 nM
1075498 (k[5mC]*kA*kT*dT*dA*dT*dA*dT*dA*dA*dT*dG*d[5mC]*kA*kG*kG; antisense) [compound 1075498]	82 % UTC	40 % UTC	21 % UTC	16 % UTC	100 nM
1074368 (kG*kA*kT*dA*dG*dT*dA*dT*d[5mC]*dA*d[5mC]*d[5mC]*dT*kG*kT*kA; antisense) [compound 1074368]	67 % UTC	34 % UTC	15 % UTC	10 % UTC	100 nM
1076549 (kG*kT*kG*d[5mC]*dA*dA*dA*dA*dT*dA*d[5mC]*d[5mC]*dT*kT*kT*kG; antisense) [compound 1076549]	53 % UTC	24 % UTC	10 % UTC	6 % UTC	< 20 nM
1076523 (kA*kT*kT*dT*dA*dT*dA*dT*d[5mC]*dA*dG*dG*dT*k[5mC]*kA*kA; antisense) [compound 1076523]	67 % UTC	38 % UTC	18 % UTC	7 % UTC	100 nM
1074595 (DNA kT*kA*kG*dA*dA*dG*dT*dA*dG*dG*dA*dG*d[5mC]*kA*kA*kG; antisense) [compound 1074595]	67 % UTC	21 % UTC	8 % UTC	4 % UTC	40 nM
1074566 (DNA CACTGAATTCCAATCG; 3-10-3 cEt gapmer, chemistry not fully specified) [compound 1074566]	41 % UTC	12 % UTC	5 % UTC	3 % UTC	< 20 nM
1075842 (kG*kT*kA*dT*dT*dT*dA*dG*dG*dT*dA*d[5mC]*dT*k[5mC]*kA*kG; antisense) [compound 1075842]	27 % UTC	7 % UTC	3 % UTC	3 % UTC	< 20 nM
1074535 (kG*kT*kA*dA*dT*dA*dG*d[5mC]*dT*d[5mC]*dT*dT*dT*k[5mC]*kT*kA; antisense) [compound 1074535]	57 % UTC	21 % UTC	7 % UTC	5 % UTC	< 20 nM
1074795 (k[5mC]*k[5mC]*kA*dA*dA*dT*d[5mC]*dA*dA*dT*dG*dT*dG*k[5mC]*kT*k[5mC]; antisense) [compound 1074795]	38 % UTC	14 % UTC	7 % UTC	5 % UTC	< 20 nM

Reference: US11214803B2, “Modulators of YAP1 expression” (Ionis Pharmaceuticals, Inc., priority 2019, dated 2022)
